The EC50 is the concentration giving half of the maximal effect. Higher therefore signals lower potency in that assay. In general, Kd refers to the free concentration of one partner at which half of the binding sites on the other are occupied at equilibrium, for simple one-to-one binding. As a reminder, the viability is a read-out of living cells in per cent, often relative to untreated cells.

Molecules are shown by their SMILES. Where a SMILES comes first, the peptide text is derived from it. The star is where a group is joined. Bn = c1ccc(C*)cc1

Consider 16 compounds from patent US12441768B2, “Compositions and methods for treating endometriosis” (EndoMet Biosciences, Inc., priority 2018, dated 2025).

Series [1] deals with Wnt-responsive promoter (TCF/LEF). Description: Wnt-dependent luciferase reporter assay. The series is classed as cell-based, murine. An outline of the steps: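 Murine 3T3 fibroblasts carrying a TCF/LEF-driven luciferase reporter, stimulated with Wnt3a in the presence of increasing peptide concentrations or vehicle. Luminescence inhibition gave EC50 values in uM.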
(In a reporter assay the amount or activity of a reporter protein is the signal.)

The target of series [2] is T1, β-catenin (Homo sapiens, UniProt P35222).
T1 sequence (P35222 1-781): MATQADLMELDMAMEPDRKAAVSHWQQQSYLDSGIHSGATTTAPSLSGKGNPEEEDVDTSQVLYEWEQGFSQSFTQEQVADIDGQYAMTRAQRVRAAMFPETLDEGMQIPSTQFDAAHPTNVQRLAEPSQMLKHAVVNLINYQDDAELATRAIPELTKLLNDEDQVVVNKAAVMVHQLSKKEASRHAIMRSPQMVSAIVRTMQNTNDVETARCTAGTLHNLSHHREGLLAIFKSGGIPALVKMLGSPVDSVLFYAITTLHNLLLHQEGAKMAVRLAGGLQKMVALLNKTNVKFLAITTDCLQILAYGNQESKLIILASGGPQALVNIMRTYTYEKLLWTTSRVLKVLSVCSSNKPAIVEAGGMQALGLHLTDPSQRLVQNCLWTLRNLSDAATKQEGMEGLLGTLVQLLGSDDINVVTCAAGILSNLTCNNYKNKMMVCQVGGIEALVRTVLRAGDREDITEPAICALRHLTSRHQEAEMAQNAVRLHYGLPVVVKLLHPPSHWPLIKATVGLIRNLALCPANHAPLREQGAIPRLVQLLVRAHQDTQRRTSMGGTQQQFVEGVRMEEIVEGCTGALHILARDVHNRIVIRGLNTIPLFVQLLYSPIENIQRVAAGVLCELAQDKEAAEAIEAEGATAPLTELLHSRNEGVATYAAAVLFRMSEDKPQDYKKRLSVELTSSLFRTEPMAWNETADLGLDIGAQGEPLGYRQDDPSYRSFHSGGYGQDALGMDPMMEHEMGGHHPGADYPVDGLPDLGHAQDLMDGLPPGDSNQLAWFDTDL
Description: KD50 measurement using competitive fluorescence polarization (FP) with labelled TCF4. Conditions: fluorescence polarization, β-catenin; for Kd: read-out: β-Cat FP KD. The series is classed as binding. In a few lines:
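5 nM labelled TCF4 was combined with 100 nM β-catenin at room temperature, then inhibitor was titrated in serial dilutions from 10 nM to 30 uM. Polarization was read at excitation 470 nm, emission 520 nm; displacement lowers the signal. Three independent experiments.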
For orientation: Polarisation of emitted light reports the rotation of a fluorescent probe.

The conditions of series [3]: % Viability non-Wnt responsive cells.

Regarding `CC[C@H](C)[C@H](NC(=O)[C@H](CC(C)C)NC(=O)C(C)(Cc1ccccc1)NC(=O)[C@H](Cc1c[nH]c2ccccc12)NC(=O)[C@@H](N)CCSC)C(=O)N[C@@H](CS)C(=O)N[C@@H](Cc1ccccc1)C(=O)N[C@@H](Cc1c[nH]c2ccccc12)C(=O)NCC(=O)O` (some centres unmarked) [compound 131] (HELM PEPTIDE1{M.W.[CC(Cc1ccccc1)(N[*:1])C(=O)[*:2]].L.I.C.F.W.G}$$$$V2.0), the EC50 in series [1] is 7.5 to 15 µM. In series [2], the “β-Cat FP Hill slope” value is 1.27 and the equilibrium dissociation constant (Kd) was less than 0.4 µM. Further, the viability in series [3] was found to be 93.1%.
On the same counts, the results for `CC[C@H](C)[C@H](NC(=O)[C@H](CC(C)C)NC(=O)[C@@H](NC(=O)C(C)(Cc1c[nH]c2ccccc12)NC(=O)[C@@H](N)CCSC)[C@@H](C)CC)C(=O)N[C@@H](CS)C(=O)N[C@@H](Cc1ccccc1)C(=O)N[C@@H](Cc1c[nH]c2ccccc12)C(=O)NCC(=O)O` (some centres unmarked) [compound 132] (HELM PEPTIDE1{M.[CC(Cc1c[nH]c2ccccc12)(N[*:1])C(=O)[*:2]].I.L.I.C.F.W.G}$$$$V2.0) are 7.5 to 15 µM, 0.7, less than 0.4 µM and 102%.
The like results for `CC[C@H](C)[C@H](NC(=O)[C@H](CC(C)C)NC(=O)C(C)(Cc1ccccc1)NC(=O)[C@H](Cc1c[nH]c2ccccc12)NC(=O)[C@@H](N)CCSC)C(=O)N[C@@H](CO)C(=O)N[C@@H](Cc1ccccc1)C(=O)N[C@@H](Cc1c[nH]c2ccccc12)C(=O)NCC(=O)O` (some centres unmarked) [compound 133] (HELM PEPTIDE1{M.W.[CC(Cc1ccccc1)(N[*:1])C(=O)[*:2]].L.I.S.F.W.G}$$$$V2.0) were, in that order, greater than 30 µM, 3, less than 0.4 µM and 95.4%.
For the compound `CC[C@H](C)[C@H](NC(=O)[C@H](CC(C)C)NC(=O)[C@@H](NC(=O)C(C)(Cc1c[nH]c2ccccc12)NC(=O)[C@@H](N)CCSC)[C@@H](C)CC)C(=O)N[C@@H](CO)C(=O)N[C@@H](Cc1ccccc1)C(=O)N[C@@H](Cc1c[nH]c2ccccc12)C(=O)NCC(=O)O` (some centres unmarked) [compound 134] (HELM PEPTIDE1{M.[CC(Cc1c[nH]c2ccccc12)(N[*:1])C(=O)[*:2]].I.L.I.S.F.W.G}$$$$V2.0), in series [1], the EC50 was greater than 30 µM. Also, in series [2], the “β-Cat FP Hill slope” value amounted to 1.47 and the Kd lay within 1 to 10 µM. In addition, the viability in series [3] stood at 97.9%.
In series [1], `CC[C@H](C)[C@H](NC(=O)[C@H](CC(C)C)NC(=O)[C@H](Cc1ccccc1)NC(=O)[C@H](Cc1c[nH]c2ccccc12)NC(=O)[C@@H](N)CCSC)C(=O)N[C@@H](CS)C(=O)N[C@@H](Cc1cncn1C)C(=O)N[C@@H](Cc1c[nH]c2ccccc12)C(=O)NCC(=O)O` [compound 135] (HELM PEPTIDE1{M.W.F.L.I.C.[Cn1cncc1C[C@H](N[*:1])C(=O)[*:2]].W.G}$$$$V2.0) showed an EC50 of 7.5 to 15 µM. For the same compound, the “β-Cat FP Hill slope” value in series [2] is on record as 0.7. Also, the viability in series [3] came to 107%.
In turn, `CC[C@H](C)[C@H](NC(=O)[C@H](Cc1c[nH]c2ccccc12)NC(=O)[C@@H](N)CCSC)C(=O)N[C@@H](CC(C)C)C(=O)N[C@H](C(=O)NC(C)(CO)C(=O)N[C@@H](Cc1ccccc1)C(=O)N[C@@H](Cc1c[nH]c2ccccc12)C(=O)NCC(=O)O)[C@@H](C)CC` (some centres unmarked) [compound 136] (HELM PEPTIDE1{M.W.I.L.I.[CC(CO)(N[*:1])C(=O)[*:2]].F.W.G}$$$$V2.0) registered an EC50 in series [1] greater than 30 µM. Also, in series [2], the “β-Cat FP Hill slope” value stood at 0.9 and the equilibrium dissociation constant (Kd) lay within 0.4 to 1 µM. Besides, the viability in series [3] is 106%.
The like results for `CC[C@H](C)[C@H](NC(=O)[C@H](Cc1c[nH]c2ccccc12)NC(=O)[C@@H](N)CCSC)C(=O)N[C@@H](CC(C)C)C(=O)N[C@H](C(=O)N[C@@H](C(=O)N[C@@H](Cc1ccccc1)C(=O)N[C@@H](Cc1c[nH]c2ccccc12)C(=O)NCC(=O)O)[C@H](C)O)[C@@H](C)CC` [compound 137] (HELM PEPTIDE1{M.W.I.L.I.[dT].F.W.G}$$$$V2.0) were, in that order, 15 to 22.5 µM, 0.81, 0.4 to 1 µM and 93.9%.
In series [1], `CC[C@H](C)[C@H](NC(=O)[C@H](Cc1c[nH]c2ccccc12)NC(=O)[C@@H](N)CCSC)C(=O)NC(C)(CC(C)C)C(=O)N[C@H](C(=O)N[C@@H](CO)C(=O)N[C@@H](Cc1ccccc1)C(=O)N[C@@H](Cc1c[nH]c2ccccc12)C(=O)NCC(=O)O)[C@@H](C)CC` (some centres unmarked) [compound 138] (HELM PEPTIDE1{M.W.I.[CC(C)CC(C)(N[*:1])C(=O)[*:2]].I.S.F.W.G}$$$$V2.0) gave an EC50 greater than 30 µM. Besides, the Kd in series [2] was greater than 30 µM. For the same compound, the viability in series [3] stood at 106%.
Turning to `CCCCCC[C@H](N)C(=O)N[C@@H](Cc1c[nH]c2ccccc12)C(=O)N[C@@H](Cc1ccccc1)C(=O)N[C@@H](CC(C)C)C(=O)N[C@H](C(=O)N[C@@H](CS)C(=O)N[C@@H](Cc1ccccc1)C(=O)N[C@@H](Cc1c[nH]c2ccccc12)C(=O)NCC(=O)O)[C@@H](C)CC` [compound 139] (HELM PEPTIDE1{[CCCCCC[C@H](N)C(=O)[*:2]].W.F.L.I.C.F.W.G}$$$$V2.0), in series [1], the EC50 was greater than 30 µM. Further, the Kd in series [2] is greater than 30 µM. Moreover, the viability in series [3] came to 99.5%.
In series [1], `CC[C@H](C)[C@H](NC(=O)[C@H](CC(C)C)NC(=O)[C@H](Cc1ccccc1)NC(=O)[C@H](Cc1c[nH]c2ccccc12)NC(=O)[C@@H](N)CCSC)C(=O)N[C@@H](CS)C(=O)N[C@@H](Cc1cn(C)cn1)C(=O)N[C@@H](Cc1c[nH]c2ccccc12)C(=O)NCC(=O)O` [compound 140] (HELM PEPTIDE1{M.W.F.L.I.C.[Cn1cnc(C[C@H](N[*:1])C(=O)[*:2])c1].W.G}$$$$V2.0) came in with an EC50 of 15 to 22.5 µM. Further, the “β-Cat FP Hill slope” value in series [2] is 0.7. Also, the viability in series [3] was found to be 102%.
In turn, `CCC[C@H](N)C(=O)N[C@@H](Cc1c[nH]c2ccccc12)C(=O)N[C@@H](Cc1ccccc1)C(=O)N[C@@H](CC(C)C)C(=O)N[C@H](C(=O)N[C@@H](CS)C(=O)N[C@@H](Cc1ccccc1)C(=O)N[C@@H](Cc1c[nH]c2ccccc12)C(=O)NCC(=O)O)[C@@H](C)CC` [compound 141] (HELM PEPTIDE1{[Nva].W.F.L.I.C.F.W.G}$$$$V2.0) came in with an EC50 in series [1] of 7.5 to 15 µM. Moreover, the Kd in series [2] is greater than 30 µM. For the same compound, the viability in series [3] is 100%.
For the compound `CC[C@H](C)[C@H](NC(=O)[C@H](CC(C)C)NC(=O)[C@H](Cc1ccccc1)NC(=O)[C@H](Cc1c[nH]c2ccccc12)NC(=O)[C@@H](N)CC(=O)O)C(=O)N[C@@H](CS)C(=O)N[C@@H](Cc1ccccc1)C(=O)N[C@@H](Cc1c[nH]c2ccccc12)C(=O)NCC(=O)O` [compound 142] (H-DWFLICFWG-OH), the EC50 in series [1] is less than 7.5 µM. Moreover, in series [2], the “β-Cat FP Hill slope” value came out at 1.15 and the Kd was less than 0.4 µM. For the same compound, the viability in series [3] is 108%.
As for `CC[C@H](C)[C@H](NC(=O)[C@H](CC(C)C)NC(=O)[C@H](Cc1ccccc1)NC(=O)[C@H](Cc1c[nH]c2ccccc12)NC(=O)[C@@H](N)CCSC)C(=O)N[C@@H](CCC(N)=O)C(=O)N[C@@H](Cc1ccccc1)C(=O)N[C@@H](Cc1c[nH]c2ccccc12)C(=O)NCC(=O)O` [compound 143] (H-MWFLIQFWG-OH), the EC50 in series [1] is 7.5 to 15 µM. The equilibrium dissociation constant (Kd) in series [2] is greater than 30 µM. Also, the viability in series [3] amounted to 104%.
On to `CC[C@H](C)[C@H](NC(=O)[C@H](CC(C)C)NC(=O)[C@@H](NC(=O)[C@H](Cc1c[nH]c2ccccc12)NC(=O)[C@@H](N)CCSC)[C@@H](C)CC)C(=O)N[C@@H](CCO)C(=O)N[C@@H](Cc1ccccc1)C(=O)N[C@@H](Cc1c[nH]c2ccccc12)C(=O)NCC(=O)O` [compound 144] (HELM PEPTIDE1{M.W.I.L.I.[O=C([C@H](CCO)N[*:1])[*:2]].F.W.G}$$$$V2.0), for which the EC50 in series [1] is less than 7.5 µM. Moreover, in series [2], the Kd is greater than 30 µM. Moreover, the viability in series [3] is 106%.
On to `CC[C@H](C)[C@H](NC(=O)[C@H](CC(C)C)NC(=O)[C@H](Cc1ccccc1)NC(=O)[C@H](Cc1c[nH]c2ccccc12)NC(=O)[C@@H](N)CCSC)C(=O)N[C@@H](CS)C(=O)N[C@@H](Cc1c[nH]cn1)C(=O)N[C@@H](Cc1c[nH]c2ccccc12)C(=O)NCC(=O)O` [compound 145] (H-MWFLICHWG-OH), for which, in series [1], the EC50 is 7.5 to 15 µM. Besides, in series [2], the “β-Cat FP Hill slope” value was 0.7 and the Kd lay in the range of 1 to 10 µM. For the same compound, the viability in series [3] was determined as 107%.
In turn, `CC[C@H](C)[C@H](NC(=O)[C@H](CC(C)C)NC(=O)[C@@H](NC(=O)[C@H](Cc1c[nH]c2ccccc12)NC(=O)[C@@H](N)CCSC)[C@@H](C)CC)C(=O)N[C@@H](COCc1ccccc1)C(=O)N[C@@H](Cc1ccccc1)C(=O)N[C@@H](Cc1c[nH]c2ccccc12)C(=O)NCC(=O)O` [compound 146] (H-MWILIS(Bn)FWG-OH) came in with an EC50 in series [1] greater than 30 µM. The Kd in series [2] was greater than 30 µM. Also, the viability in series [3] was 99.1%.
